From ChEMBL document CHEMBL1148879, “1,4-Dihydroindeno[1,2-c]pyrazoles as potent checkpoint kinase 1 inhibitors: extended exploration on phenyl ring substitutions and preliminary ADME/PK studies” (Bioorg Med Chem Lett, 2007)

What was measured:
[1] = molecular target: T1, Serine/threonine-protein kinase Chk1 (Homo sapiens, UniProt O14757); test: Inhibition of recombinant CHK-mediated Cdc25C phosphorylation after 30 mins
T1 sequence (O14757 whole entry): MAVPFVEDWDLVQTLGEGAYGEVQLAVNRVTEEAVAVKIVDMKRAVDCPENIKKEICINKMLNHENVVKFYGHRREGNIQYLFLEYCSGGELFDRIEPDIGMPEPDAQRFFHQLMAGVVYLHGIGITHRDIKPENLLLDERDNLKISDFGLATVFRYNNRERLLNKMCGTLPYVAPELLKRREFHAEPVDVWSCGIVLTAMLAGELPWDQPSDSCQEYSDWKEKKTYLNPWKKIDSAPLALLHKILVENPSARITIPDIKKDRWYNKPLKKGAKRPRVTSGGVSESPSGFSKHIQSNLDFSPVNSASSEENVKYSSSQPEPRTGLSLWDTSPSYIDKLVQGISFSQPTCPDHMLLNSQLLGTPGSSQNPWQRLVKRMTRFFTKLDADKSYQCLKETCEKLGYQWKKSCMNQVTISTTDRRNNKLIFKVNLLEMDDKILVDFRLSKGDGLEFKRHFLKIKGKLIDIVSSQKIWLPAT

HeLa = test: cells; details: Homo sapiens
Description: Antiproliferative activity against human HeLa cells by MTS assay

[2] = Antiproliferative activity against human H1299 cells by FACS assay; assay type: functional, cell-based; details: NCI-H1299
[3] = (§1) AUC in mouse at 3 mg/kg, iv; assay type: ADME, organism-based, Plasma; design: dose 3 mg/kg, route intravenous; details: plasma
[4] = Volume of distribution in mouse at 3 mg/kg, iv; assay type: ADME, organism-based; design: dose 3 mg/kg, route intravenous; details: in vivo, read-out: Vdss
[5] = AUC in mouse at 10 mg/kg, ip; assay type: ADME, organism-based; design: dose 10 mg/kg, route intraperitoneal; details: plasma
[6] = Cmax in mouse at 10 mg/kg, po; assay type: ADME, organism-based; design: dose 10 mg/kg, route oral; details: in vivo
[7] = Plasma clearance in mouse at 3 mg/kg, iv; assay type: ADME, organism-based; design: dose 3 mg/kg, route intravenous
[8] = Cmax in mouse at 10 mg/kg, ip; assay type: ADME, organism-based; design: dose 10 mg/kg, route intraperitoneal; details: in vivo
[9] = Oral bioavailability in mouse at 10 mg/kg; assay type: ADME, organism-based; details: in vivo
[10] = Half life in mouse at 3 mg/kg, iv; assay type: ADME, organism-based; design: dose 3 mg/kg, route intravenous; details: in vivo
Mus musculus = test: as §1; assay type: ADME, organism-based, Plasma; design: dose 3 mg/kg, route intravenous; details: in vivo
[11] = AUC in mouse at 10 mg/kg, po; assay type: ADME, organism-based; design: dose 10 mg/kg, route oral; details: plasma
[12] = Apparent permeability across human Caco-2 cells at 1 uM; assay type: ADME, cell-based
[13] = Metabolic stability in rat liver microsomes assessed as compound remaining at 1 uM after 30 mins; assay type: ADME, Microsome; details: read-out: Stability
[14] = Metabolic stability in rat liver microsome assessed as […] at 1 uM; assay type: ADME; details: liver microsomes, read-out: Activity (converted)
[15] = Aqueous solubility at neutral pH; assay type: physicochemical; details: buffer
[16] = Metabolic stability in rat liver microsomes assessed as half life at 1 uM; assay type: ADME, Microsome

| Compound | IC50 [1] | EC50 (HeLa) | EC50 [2] | further results |
| --- | --- | --- | --- | --- |
| CC(=O)Nc1cccc2c1Cc1c(-c3ccc(-c4ccc(O)cc4)cc3)n[nH]c1-2 | 0.0055 µM | – | – | – |
| OCc1cccc2c1Cc1c(-c3ccc(-c4ccc(O)cc4)cc3)n[nH]c1-2 | 0.0078 µM | > 59 µM | – | – |
| O=C(N[C@H]1CC[C@H](O)CC1)c1cccc2c1Cc1c(-c3ccc(-c4ccc(O)cc4)cc3)n[nH]c1-2 | > 10 µM | – | – | – |
| OCc1ccc2c(c1)-c1[nH]nc(-c3ccc(-c4ccc(O)cc4)cc3)c1C2 | 0.0044 µM | > 59 µM | > 10 µM | – |
| O=C(NCCO)c1ccc2c(c1)-c1[nH]nc(-c3ccc(-c4ccc(O)cc4)cc3)c1C2 | 0.005 µM | – | – | – |
| CNC(=O)c1ccc2c(c1)-c1[nH]nc(-c3ccc(-c4ccc(O)cc4)cc3)c1C2 | 0.0023 µM | – | – | – |
| O=C(c1ccc2c(c1)-c1[nH]nc(-c3ccc(-c4ccc(O)cc4)cc3)c1C2)N1CCOCC1 | 0.091 µM | – | – | – |
| COc1cc2c(cc1C(=O)N1CCOCC1)Cc1c(-c3ccc(-c4ccc(O)cc4)cc3)n[nH]c1-2 | 0.00055 µM | – | – | – |
| COc1cc2c(cc1CNCCO)Cc1c(-c3ccc(-c4ccc(O)cc4)cc3)n[nH]c1-2 | 0.00043 µM | – | – | – |
| COc1cc2c(cc1CNCCN1CCCC1)Cc1c(-c3ccc(-c4ccc(O)cc4)cc3)n[nH]c1-2 | 0.00021 µM | 0.91 µM | 5.1 µM | – |
| COc1cc2c(cc1C(=O)N[C@H]1CC[C@H](O)CC1)C(C)(C)c1c(-c3ccc(-c4ccc(O)cc4)cc3)n[nH]c1-2 | 0.018 µM | 8.6 µM | > 10 µM | – |
| COc1cc2c(cc1C(=O)NCc1ccccn1)Cc1c(-c3ccc(-c4ccc(O)c(F)c4)cc3)n[nH]c1-2 | 0.027 µM | – | – | AUC [3]: 1700 ng·h/mL; Vd [4]: 2.4 L/kg; AUC [5]: 3800 ng·h/mL; Cmax [6]: < 50 nM; clearance [7]: 60 mL/min/kg; Cmax [8]: 2800 nM; bioavailability [9]: 0%; half-life [10]: 27.6 min |
| COc1cc2c(cc1C(=O)NCc1ccccn1)Cc1c(-c3ccc(-c4ccc(O)c(C#N)c4)cc3)n[nH]c1-2 | 9.09 µM | – | – | – |
| COc1cc2c(cc1CN1CCN(C)CC1)Cc1c(-c3ccc(-c4ccc(O)c(F)c4)cc3)n[nH]c1-2 | 0.028 µM | – | – | AUC (Mus musculus): 690 ng·h/mL; Vd [4]: 9.2 L/kg; AUC [5]: 1600 ng·h/mL; AUC [11]: 130 ng·h/mL; Cmax [6]: 80 nM; Cmax [8]: 1300 nM; bioavailability [9]: 6%; half-life [10]: 36 min |
| COc1cc2c(cc1CN1CCN(C)CC1)Cc1c(-c3ccc(-c4ccc(O)c(C#N)c4)cc3)n[nH]c1-2 | > 10 µM | – | – | – |
| COc1cc2c(cc1CN1CCC(O)CC1)Cc1c(-c3ccc(-c4ccc(O)cc4)cc3)n[nH]c1-2 | 0.0011 µM | – | – | – |
| O=C(NCc1ccccn1)c1ccc2c(c1)Cc1c(-c3ccc(-c4ccc(O)cc4)cc3)n[nH]c1-2 | – | 23 µM | > 10 µM | AUC (Mus musculus): 1200 ng·h/mL; Vd [4]: 4.7 L/kg; AUC [5]: 4400 ng·h/mL; Papp at 1 µM [12]: 13.3 ×10⁻⁶ cm/s; remaining at 0.5 h, 1 µM [13]: 40%; AUC [11]: 160 ng·h/mL; Cmax [6]: 250 nM; k el at 1 µM [14]: 0.00049 s⁻¹; solubility [15]: < 0.03 µg/mL; Cmax [8]: 2000 nM; bioavailability [9]: 4%; half-life at 1 µM [16]: 25 min; half-life [10]: 36 min |
| O=C(CNCc1ccncc1)Nc1ccc2c(c1)Cc1c(-c3ccc(-c4ccc(O)cc4)cc3)n[nH]c1-2 | 0.0064 µM | – | – | – |
| O=C(CN[C@H]1CC[C@H](O)CC1)Nc1ccc2c(c1)Cc1c(-c3ccc(-c4ccc(O)cc4)cc3)n[nH]c1-2 | 0.0012 µM | > 59 µM | > 10 µM | – |

| Compound | IC50 [1] | EC50 (HeLa) | EC50 [2] | further results |
| --- | --- | --- | --- | --- |
| O=C(CNCCO)Nc1ccc2c(c1)Cc1c(-c3ccc(-c4ccc(O)cc4)cc3)n[nH]c1-2 | 0.00074 µM | > 59 µM | > 10 µM | – |
| CC(C)(C)NCc1ccc2c(c1)-c1[nH]nc(-c3ccc(-c4ccc(O)cc4)cc3)c1C2 | 0.034 µM | – | – | – |
| OCCNCc1ccc2c(c1)-c1[nH]nc(-c3ccc(-c4ccc(O)cc4)cc3)c1C2 | 0.012 µM | – | – | – |
| CN(C)CCNCc1ccc2c(c1)-c1[nH]nc(-c3ccc(-c4ccc(O)cc4)cc3)c1C2 | 0.0052 µM | > 59 µM | > 10 µM | – |
| COc1cc2c(cc1C(=O)N1CCC(O)CC1)Cc1c(-c3ccc(-c4ccc(O)cc4)cc3)n[nH]c1-2 | 0.00024 µM | 1.4 µM | 5.2 µM | – |
| COc1cc2c(cc1C(=O)NCCN1CCCC1)Cc1c(-c3ccc(-c4ccc(O)cc4)cc3)n[nH]c1-2 | 0.00083 µM | – | – | – |
| COc1cc2c(cc1CN[C@H]1CC[C@H](O)CC1)Cc1c(-c3ccc(-c4ccc(O)cc4)cc3)n[nH]c1-2 | 0.00056 µM | 0.62 µM | 3.1 µM | – |
| Oc1ccc(-c2ccc(-c3n[nH]c4c3Cc3cc(O)ccc3-4)cc2)cc1 | 0.0044 µM | – | – | – |
| OCc1ccc2c(c1)Cc1c(-c3ccc(-c4ccc(O)cc4)cc3)n[nH]c1-2 | 0.0077 µM | > 59 µM | – | – |
| CCCCNCC(=O)Nc1ccc2c(c1)Cc1c(-c3ccc(-c4ccc(O)cc4)cc3)n[nH]c1-2 | 0.0021 µM | 1.7 µM | > 10 µM | – |
| CC(C)(C)CNCc1cccc2c1Cc1c(-c3ccc(-c4ccc(O)cc4)cc3)n[nH]c1-2 | 0.209 µM | – | – | – |
| Oc1ccc(-c2ccc(-c3[nH]nc4c3Cc3cccc(O)c3-4)cc2)cc1 | 0.671 µM | – | – | – |
| O=C(NCc1ccccc1)c1cccc2c1Cc1c(-c3ccc(-c4ccc(O)cc4)cc3)n[nH]c1-2 | > 10 µM | – | – | – |
| Oc1ccc(-c2ccc(-c3n[nH]c4c3Cc3ccc(CNCCN5CCCC5)cc3-4)cc2)cc1 | 0.0071 µM | 2.8 µM | – | – |
| COc1cc2c(cc1CN1CCN(C)CC1)Cc1c(-c3ccc(-c4ccc(O)cc4)cc3)n[nH]c1-2 | 0.00051 µM | – | – | – |
| Oc1ccc(-c2ccc(-c3n[nH]c4c3Cc3ccccc3-4)cc2)cc1 | 1.37 µM | – | – | – |
| CN1CCN(Cc2ccc3c(c2)Cc2c(-c4ccc(-c5ccc(O)cc5)cc4)n[nH]c2-3)CC1 | 0.024 µM | 1.7 µM | > 10 µM | AUC (Mus musculus): 1500 ng·h/mL; Vd [4]: 3.4 L/kg; AUC [5]: 2700 ng·h/mL; AUC [11]: 450 ng·h/mL; Cmax [6]: 90 nM; solubility [15]: < 0.03 µg/mL; Cmax [8]: 1100 nM; bioavailability [9]: 9%; half-life [10]: 30 min |
| COc1cc2c(cc1C(=O)N[C@H]1CC[C@H](O)CC1)Cc1c(-c3ccc(-c4ccc(O)cc4)cc3)n[nH]c1-2 | 0.00024 µM | 38 µM | > 10 µM | AUC [3]: 570 ng·h/mL; Vd [4]: 6 L/kg; AUC [5]: 4200 ng·h/mL; Cmax [6]: < 100 nM; clearance [7]: 183 mL/min/kg; Cmax [8]: 1500 nM; bioavailability [9]: 0%; half-life [10]: 23.4 min |
| COc1cc2c(cc1C(=O)N1CCN(C)CC1)Cc1c(-c3ccc(-c4ccc(O)cc4)cc3)n[nH]c1-2 | 0.0023 µM | – | – | – |
